For series [1], the target named is hKCNQ1/hminK (Homo sapiens (Human), UniProt P51787). Briefly: hKCNQ1/hminK Potassium Channel Assay, Qube APC. It is filed as cell-based. Conditions: KCNQ1/mink. On the procedure:
(§1) Electrophysiological assays were conducted to profile three compounds ((R)-methylone, (S)-methylone, or racemic methylone) for activities on the ion channel targets specified below using the Qube electrophysiological platform. Where presented, IC50 values were determined by a non-linear, least squares regression analysis. Reference standards were run as an integral part of each assay to ensure the validity of the results obtained.
(§2) Ion Channels tested were Eurofins Panel Part Number: CPROFullQB2DR Voltage-Gated Sodium: HEK-Nav1.5 (Peak), HEK-Nav1.5 (Late, Antagonist) Voltage-Gated Potassium: HEK-Kv4.3/KChIP2, CHO-hERG, CHO-KCNQ1/minK Voltage-Gated Calcium: HEK-Cav1.2 Inward-Rectifying Voltage-Gated Potassium: HEK-Kir2.1.
hKCNQ1/hminK Potassium Channel Assay—Qube APC After whole cell configuration is achieved, the cells are held at −80 mV. KCNQ1/minK currents are evoked by a 1000 ms pulse from −80 mV to 60 mV followed by a ramp from 60 mV to −80 mV over 115 ms with the outward peak currents measured upon depolarization of the cell membrane. This paradigm is delivered once every 15 s to monitor the current amplitude.

Series [2] addresses hKir2.1 (Homo sapiens (Human), UniProt P63252). It is filed as cell-based. As for the experimental part: as §1, §2
hKir2.1 Potassium Channel Assay—Qube APC After whole cell configuration is achieved, the cells are held at −30 mV. Kir2.1 currents are evoked by a single 500 ms pulse to −120 mV before returning to the holding potential of −30 mV. This paradigm is delivered once every 20 s to monitor the current amplitude.

Series [3] addresses hKv4.3/hKChIP2 (Homo sapiens (Human), UniProt Q9UK17). Kind of series: hKv4.3/hKChIP2 Potassium Channel Assay, Qube APC. It is filed as cell-based. As for the experimental part: as §1, §2
hKv4.3/hKChIP2 Potassium Channel Assay—Qube APC After whole cell configuration is achieved, the cells are held at −80 mV. Onset and steady state block of hKv4.3 current is measured using a pulse pattern from −80 mV to 40 mV amplitude for a 110 ms duration, and finally a 100 ms ramp (1.2 V/s) to −80 mV. This paradigm is delivered once every 5 s to monitor the current amplitude.

Series [4] can be described thus: Dynamic vapor sorption (DVS). It counts as physicochemical. On the procedure:
(§3) Two lots of methylone HCl samples were submitted to evaluate the stability of the solid forms under various humidity conditions. Dynamic vapor sorption (DVS) analysis was performed to evaluate the kinetic hygroscopicity and assess if variable humidity XRPD would be necessary, as well as to determine the appropriate humidity condition(s) for such XRPD analysis. Both pre- and post-DVS samples were analyzed by conventional XRPD for solid form confirmation or any potential form changes.
DVS analyses were carried out using a TA Instruments Q5000 Dynamic Vapor Sorption analyzer. The instrument was calibrated with standard weights and a sodium bromide standard for humidity. Approximately 12-13 mg of each powder sample was loaded into a metal-coated quartz pan for analysis. The samples were analyzed from 5 to 95% RH (adsorption cycle) and from 95 to 5% RH (desorption cycle) in 10% RH steps. The movement from one step to the next occurred either after satisfying the equilibrium criterion of 0.01% weight change in 5 minutes or, if the equilibrium criterion was not met, after 90 minutes. The percent weight change values were calculated using Microsoft EXCEL® 2016.

Series [5] in a line: XRPD of pre- and post-DVS samples (form stability). It is filed as physicochemical. The conditions noted are these: pre- versus post-DVS. On the procedure: as §3
The XRPD patterns between the pre- and post-DVS samples were compared for lots 213220 and KRR-R&D-2022-II-58, respectively.
Each sample was prepared in a silicon low background holder using light manual pressure to keep the sample surface flat and level with the reference surface of the sample holder. The single crystal Si low background holder has a circular recess (10 mm diameter and about 0.2 mm depth) that holds the sample. The Rigaku Smart-Lab diffraction system used was configured for Bragg-Brentano reflection geometry using a line source X-ray beam. The Bragg-Brentano geometry was controlled by passive divergence and receiving slits with the sample itself acting as the focusing component for the optics.

Series [6] concerns the target hNav1.5 (Homo sapiens (Human), UniProt Q14524). Kind of series: hNav1.5 Sodium Channel Assay (peak), Qube APC. It is filed as cell-based. The conditions noted are these: Nav1.5, Antagonist mode, test compound. On the procedure: (§4) Where presented, IC50 values were determined by a non-linear, least squares regression analysis.
(§5) Recombinant HEK-293 cells stably transfected with human Nav1.5 cDNA, recombinant HEK293 cell line expressing the human Cav1.2 (L-type voltage gated calcium channel, hCav1.2 α1C/β2a/α2δ1, and recombinant CHO-K1 cells stably transfected with human hERG cDNA were used separately in each of these assays.
hNav1.5 Sodium Channel Assay—Qube APC Onset and steady state block of peak Nav1.5 current is measured using a pulse pattern, repeated every 5 sec, consisting of a hyperpolarizing pulse to −120 mV for a 200 ms duration, depolarization to −15 mV amplitude for a 40 ms duration, followed by step to 40 mV for 200 ms and finally a 100 ms ramp (1.2 V/s) to a holding potential of −80 mV. Peak current is measured during the step to −15 mV.

For series [7], the target named is hCav1.2 (Homo sapiens (Human), UniProt Q13936). Briefly: hCav1.2 (L-type) Calcium Channel Assay, Qube APC. The conditions noted are these: Cav1.2, Antagonist mode, test compound. It is filed as cell-based. On the procedure: as §4, §5
hCav1.2 (L-type) Calcium Channel Assay—Qube APC After whole cell configuration is achieved, the cells are held at −90 mV. Cav1.2 currents are evoked by a 50 ms pulse to −100 mV followed by a 200 ms pulse to +20 mV before returning to the holding potential of −90 mV. This paradigm is delivered three times every 60 s to monitor the current amplitude.

Series [8] has as its target hNav1.5 Late Current (Homo sapiens (Human), UniProt Q14524). Kind of series: hNav1.5 Late Current Sodium Channel Assay, Qube APC. It is filed as cell-based. Conditions: Nav1.5 Late Current, Antagonist mode, test compound. On the procedure: as §1, §2
hNav1.5 Late Current Sodium Channel Assay—Qube APC Onset and steady state block of Late Nav1.5 current is measured using a pulse pattern, repeated every 5 sec, consisting of a hyperpolarizing pulse to −120 mV for a 200 ms duration, depolarization to −15 mV amplitude for a 40 ms duration, followed by step to 40 mV for 200 ms and finally a 100 ms ramp (1.2 V/s) to a holding potential of −80 mV. Late current is measured as charge current elicited during the ramp with 50 nM ATXII.

One may read the IC50 as the concentration that inhibits the measured activity by half.

Molecules are shown by their SMILES. Where a name gives a salt, the structure may show the parent alone.

Chain of hKv4.3/hKChIP2 (Q9UK17 whole entry, looked up): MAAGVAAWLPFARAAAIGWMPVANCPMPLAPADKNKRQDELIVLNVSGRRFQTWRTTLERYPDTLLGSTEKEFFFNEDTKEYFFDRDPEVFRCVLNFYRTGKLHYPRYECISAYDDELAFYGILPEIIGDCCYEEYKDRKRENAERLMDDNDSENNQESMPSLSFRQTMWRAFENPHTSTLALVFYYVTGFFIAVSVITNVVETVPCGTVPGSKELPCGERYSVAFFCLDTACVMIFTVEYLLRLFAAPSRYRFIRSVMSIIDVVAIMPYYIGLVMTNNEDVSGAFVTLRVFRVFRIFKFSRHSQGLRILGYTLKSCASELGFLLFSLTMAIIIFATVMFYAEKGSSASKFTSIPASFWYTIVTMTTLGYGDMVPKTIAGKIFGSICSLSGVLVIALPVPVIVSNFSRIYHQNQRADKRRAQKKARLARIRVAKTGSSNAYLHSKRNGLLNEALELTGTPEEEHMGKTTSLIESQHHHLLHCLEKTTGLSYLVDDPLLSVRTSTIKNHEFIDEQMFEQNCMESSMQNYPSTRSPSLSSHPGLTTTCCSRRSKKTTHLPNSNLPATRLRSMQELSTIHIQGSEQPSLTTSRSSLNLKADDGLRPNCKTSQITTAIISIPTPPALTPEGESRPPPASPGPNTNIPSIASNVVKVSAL
Chain of hKv4.3/hKChIP2 (Q9NS61 whole entry partner, looked up): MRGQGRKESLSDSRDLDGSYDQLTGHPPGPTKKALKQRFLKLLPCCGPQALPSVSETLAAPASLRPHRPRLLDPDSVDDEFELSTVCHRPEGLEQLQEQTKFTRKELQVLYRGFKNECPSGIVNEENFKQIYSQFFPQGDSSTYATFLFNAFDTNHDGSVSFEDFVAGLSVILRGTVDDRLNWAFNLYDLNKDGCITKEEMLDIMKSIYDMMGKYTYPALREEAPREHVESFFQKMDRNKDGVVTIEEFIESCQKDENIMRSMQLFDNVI
Chain of hKir2.1 (P63252 whole entry): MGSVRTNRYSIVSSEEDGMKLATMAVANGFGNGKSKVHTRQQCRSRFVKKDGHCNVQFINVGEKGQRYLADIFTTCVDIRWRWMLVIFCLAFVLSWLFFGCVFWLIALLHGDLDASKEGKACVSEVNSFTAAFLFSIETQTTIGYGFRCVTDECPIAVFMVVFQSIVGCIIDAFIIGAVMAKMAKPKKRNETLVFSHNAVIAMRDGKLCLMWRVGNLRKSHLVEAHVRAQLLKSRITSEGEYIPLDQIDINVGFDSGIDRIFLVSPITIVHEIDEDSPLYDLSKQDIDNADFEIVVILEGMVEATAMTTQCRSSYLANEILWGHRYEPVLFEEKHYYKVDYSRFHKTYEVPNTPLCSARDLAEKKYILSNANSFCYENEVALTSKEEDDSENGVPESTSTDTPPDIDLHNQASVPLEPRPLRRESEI

On to `CCS(=O)(=O)N(C)[C@H]1c2cc(C#N)ccc2OC(C)(C)[C@@H]1O` (racemic) [Chromanol 293B], for which, in series [1] (reference compound, read-out: Estimated IC50), the IC50 is 45.3 µM.

For the compound `[Ba+2].[Cl-].[Cl-]` [Barium Chloride], in series [2] (Kir2.1, reference compound, read-out: Estimated IC50), the IC50 was 14.4 µM.

As to `O=C(NCC1CCCCN1)c1cc(OCC(F)(F)F)ccc1OCC(F)(F)F` (centres unmarked) [Flecainide], the IC50 in series [3] (Kc4.3/ChIP2, reference compound, read-out: Estimated IC50) was 19.5 µM.

For `CNC(C)C(=O)c1ccc2c(c1)OCO2` (centres unmarked) [Lot 213220, methylone HCl], in series [4], the Hysteresis upon desorption entry is “little to no hysteresis”. For the same compound, in series [5], the “Form changes of post-DVS samples (XRPD)” value is “No form changes”.

In the case of `CNC(C)C(=O)c1ccc2c(c1)OCO2` (centres unmarked) [Methylone HCl, methylone HCl], the “Estimated IC50” value was “N/C (N/C indicates observed mean inhibition was <25%)” in series [6]; “N/C (N/C indicates observed mean inhibition was <25%)” in series [2] (Kir2.1, Antagonist mode, test compound); “N/C (N/C indicates observed mean inhibition was <25%)” in series [1] (Antagonist mode, test compound); “N/C (N/C indicates observed mean inhibition was <25%)” in series [7]; “N/C (N/C indicates observed mean inhibition was <25%)” in series [8]; “N/C (N/C indicates observed mean inhibition was <25%)” in series [3] (Kc4.3/ChIP2, Antagonist mode, test compound).

Turning to `CNC(C)C(=O)c1ccc2c(c1)OCO2.Cl` [lot KRR-R&D-2022-II-58, methylone HCl], in series [4], the “Adsorbed water retained upon desorption” value is reported as “approximately 0.06%” and the Hysteresis upon desorption result was “slight hysteresis”. Also, in series [5], the “Form changes of post-DVS samples (XRPD)” value is “No form changes”.

Source of the values: US20240327372A1, “PREPARATION OF PHENE[…] […] STEREOISOMERS THEREOF AND PRECURSORS THEREOF” (priority 2022, published 2024).
